# Laboratory results reported in patent US20100266716A1, “Natural Photodynamic Agents and their use” (priority 2007, published 2010).
# Columns and labels:
# Assay type in all cases: cell-based
# [1] = test system: Pseudomonas syringae HB9; experiment: Photodynamic activity on plant bacterial pathogen (Example 4)
# Description: Test microorganism included Pseudomonas syringae, a food spoilage microorganism and plant pathogen. Test Compounds included Hemin (blood product), Annatto Extract, and Turmeric. Compounds were prepared as 1%, 0.1%, 0.01%, by weight, in 30% Mueller Hinton Broth in phosphate buffered saline. The light source was a broad spectrum fluorescent light or an LED light and the contact time was 16 hours. The study temperature was 28° C.
# Approximately 10^6 organisms in 150 uL Cationic
# Adjusted Mueller Hinton Broth were placed in each of the wells of a 96 peg MBEC device. The lid of the 96 peg MBEC device was placed on the bottom plate containing organism. The device was placed on a shaker, set to 110 rpm, and incubated at 28° C. for 24 hours.
# The challenge plates were set up using a sterile 96-well microtitre plate using aseptic techniques in the following manner (one organism per plate, per light exposure time, per light source). Test solutions (200 uL) were placed into each well. The lid was transferred to the challenge plate and exposed to the various light sources for the prescribed exposure times (16 hours). Following the treatment, the pegs were transferred to the recovery media (“recovery plate”) then wrapped in tin foil and incubated at 28° C. for 18 to 24 hours.
# The recovery plate(s) was wrapped in tin foil, incubated at 28° C. for 24 hours and read visually and by a plate reader, set to an optical density measurement of 630 nm, to determine MBEC growth.
# [2] = test system: Salmonella choleraesuis; experiment: MBEC device biofilm photodynamic killing (Example 1); set-up: key to Killing of Salmonella cholerasuis biofilm (eradication or growth): “−” = biofilm eradication at the mentioned conditions (concentration, exposure time and Light source); “+” = biofilm growth; conditions: for Killing of Salmonella cholerasuis biofilm (eradication or growth): 16 Hours exposure
# Excerpt: (§1) Test microorganisms included Salmonella choleraesuis, Staphylococcus aureus, foodborne pathogens of humans. Test Compounds included Methylene blue, Hemoglobin (blood product), Hemin (blood product), Protoporphyrin (blood product), Annatto Extract (15% Norbixin), beet juice, Canthaxanthin (10%), Beta-carotene (1%), Purple carmine 50%, Carmine lake 60%, Black Carrot extract, Tomato lycopene (5%), sodium copper chlorophyllin, grape skin extract, paprika oleoresin, riboflavin, saffron, titanium dioxide, FD&C blue No1., turmeric oleoresin, FD&C blue No. 2, FD&C Green No. 3, FD&C Red No. 2 (Amaranth), FD&C Red No. 40, FD&C Yellow No. 5, and FD&C Yellow No. 6. Compounds were prepared as 1%, 0.1%, 0.01%, by weight, dissolved in water.
# (§2) The light source was a full spectrum fluorescent light or LED light and the contact time was 1 and 16 hours. The study temperature was 37° C.
# (§3) Approximately 10^6 organisms in 150 uL Cation Adjusted Mueller Hinton Broth (CAMHB) were placed in each of the wells of a 96 peg MBEC device. The lid of the 96 peg MBEC device was placed on the bottom plate containing organism. The device was placed on a shaker, set to 110 rpm, and incubated at 37° C. for 24 hours to produce biofilms.
# (§4) The challenge plates were set up using a sterile 96-well microtitre plate using aseptic techniques in the following manner (one organism per plate, per light exposure time, per light source). Test solutions (200 uL) were placed into each well. The lid was transferred to the challenge plate and exposed to the various light sources for the prescribed exposure times (16 hours). Following the treatment, the pegs were transferred to the recovery media (“recovery plate”) then wrapped in tin foil and incubated at 37° C. for 18 to 24 hours. The recovery plate(s) was wrapped in tin foil, incubated at 37° C. for 24 hours and read visually and by a plate reader, set to an optical density measurement of 630 nm, to determine Minimum Biofilm Eradication Concentration (MBEC) by looking at growth or no growth.
# [3] = test system: E. coli 0157H7; experiment: Photocatalytic food dyes Log10 counts (Example 2)
# Excerpt: as §1, §2, §3, §4
# (§5) The test was conducted as shown in Example 1, but using Hemin (blood product), Protoporphyrin (blood product), Annatto Extract, and Turmeric. The group of tests organism also included E. Coli 0157H7.
# [4] = test system: Salmonella choleraesuis; experiment: Photocatalytic food dyes Log10 counts (Example 2); conditions: S. choleraesuis, Control 7.28
# Excerpt: as §1, §2, §3, §4, §5
# [5] = test system: Staphylococcus aureus; experiment: Photocatalytic food dyes Log10 counts (Example 2); conditions: Staph. aureus
# Excerpt: as §1, §2, §3, §4, §5
# [6] = test system: Staphylococcus aureus; experiment: MBEC device biofilm photodynamic killing (Example 1); set-up: key to Killing of Staph aureus biofilm (eradication or growth): “−” = biofilm eradication at the mentioned conditions (concentration, exposure time and Light source); “+” = biofilm growth; conditions: 16 Hours exposure
# Excerpt: as §1, §2, §3, §4
# [7] = Fluorescent Light 16 hours, 0.01%
# [8] = Fluorescent Light 16 hours, 0.1%
substance,measurement,setting,value
Hemin,Average Log10 growth reductions,[1]; [7],1.07 log10 CFU
same,Average Log10 growth reductions,[1]; [8],0.92 log10 CFU
same,Average Log10 growth reductions,"[1]; Fluorescent Light 16 hours, 1%",1.51 log10 CFU
same,Average Log10 growth reductions,"[1]; LED Light 16 hours, 0.01%",1.48 log10 CFU
same,Average Log10 growth reductions,"[1]; LED Light 16 hours, 0.1%",1.32 log10 CFU
same,Average Log10 growth reductions,"[1]; LED Light 16 hours, 1%",3.97 log10 CFU
same,Killing of Salmonella cholerasuis biofilm (eradication or growth),"[2]; Fluorescent Light, 0.01%",−
same,Killing of Salmonella cholerasuis biofilm (eradication or growth),"[2]; Fluorescent Light, 0.1%",−
same,Killing of Salmonella cholerasuis biofilm (eradication or growth),"[2]; Fluorescent Light, 1%",−
same,Killing of Salmonella cholerasuis biofilm (eradication or growth),"[2]; LED Light, 0.01%",+
same,Killing of Salmonella cholerasuis biofilm (eradication or growth),"[2]; LED Light, 0.1%",+
same,Killing of Salmonella cholerasuis biofilm (eradication or growth),"[2]; LED Light, 1%",−
same,effective as photodynamic agent in killing biofilm organisms,"[2]; Salmonella choleraesuis and Staphylococcus aureus biofilm, summary of Table 1",Effective
same,Average Log10 counts,"[3]; Fluorescent Light 16 hours, 0.01%, Control 6.51",3.17 Log10
same,Average Log10 counts,"[3]; Fluorescent Light 16 hours, 0.1%, Control 6.51",3.79 Log10
same,Average Log10 counts,"[3]; Fluorescent Light 16 hours, 1%, Control 6.51",3.06 Log10
same,Average Log10 counts,"[3]; LED Light 16 hours, 0.01%, Control 6.36",4.18 Log10
same,Average Log10 counts,"[3]; LED Light 16 hours, 0.1%, Control 6.36",4.22 Log10
same,Average Log10 counts,"[3]; LED Light 16 hours, 1%, Control 6.36",0.00 Log10
same,Average Log10 counts,[4]; [7],2.79 Log10
same,Average Log10 counts,[4]; [8],3.85 Log10
same,Average Log10 counts,"[4]; Fluorescent Light 16 hours, 1%",4.55 Log10
same,Average Log10 counts,"[4]; LED Light 16 hours, 0.01%",4.02 Log10
same,Average Log10 counts,"[4]; LED Light 16 hours, 0.1%",4.48 Log10
same,Average Log10 counts,"[4]; LED Light 16 hours, 1%",4.74 Log10
same,Average Log10 counts,"[5]; Fluorescent Light 16 hours, 0.01%, Control 6.48",2.21 Log10
same,Average Log10 counts,"[5]; Fluorescent Light 16 hours, 0.1%, Control 6.48",0.79 Log10
same,Average Log10 counts,"[5]; Fluorescent Light 16 hours, 1%, Control 6.48",0.00 Log10
same,Average Log10 counts,"[5]; LED Light 16 hours, 0.01%, Control 6.95",5.52 Log10
same,Average Log10 counts,"[5]; LED Light 16 hours, 0.1%, Control 6.95",3.75 Log10
same,Average Log10 counts,"[5]; LED Light 16 hours, 1%, Control 6.95",1.51 Log10
same,Killing of Staph aureus biofilm (eradication or growth),"[6]; Fluorescent Light, 0.01%",+
same,Killing of Staph aureus biofilm (eradication or growth),"[6]; Fluorescent Light, 0.1%",+
same,Killing of Staph aureus biofilm (eradication or growth),"[6]; Fluorescent Light, 1%",+
same,Killing of Staph aureus biofilm (eradication or growth),"[6]; LED Light, 0.01%",+
same,Killing of Staph aureus biofilm (eradication or growth),"[6]; LED Light, 0.1%",+
same,Killing of Staph aureus biofilm (eradication or growth),"[6]; LED Light, 1%",+
